Data on 25 compounds can be found in patent publication US20240391948A1, “NOVEL COMPOUND THAT INHIBITS TNF-ALPHA GENERATION AND INFLAMMASOME ACTIVITY AND PREPARATION METHOD THEREFOR” (SHAPERON INC., priority 2021, published 2024).

Common to all, as to assay type: cell-based
In experiment [1] the test system is J774A.1 (Mouse BALB/c monocyte macrophage cell line) cells. Put plainly: LPS+ATP-induced IL-1β secretion inhibition in J774A.1 cells. The settings on record: J774.A1, 1 μM compound, graded compared to taurodeoxycholic acid (positive control), read-out: IL-1β production inhibition grade. In a few lines: (§1)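 Mouse J774A.1 macrophages treated with 1 μM compound; TNF-α secretion measured after LPS stimulation and IL-1β secretion after LPS+ATP stimulation. Suppression graded against taurodeoxycholic acid: A over 100%, B 50–100%, C 20–50%, D under 20%.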

Experiment [2] has as its system U937 cells (human monocytic cell line). Put plainly: Pam2CSK4-induced TNF-α secretion inhibition in PMA-differentiated U937 cells. The settings on record: U-937, U937 cells differentiated with PMA, read-out: TNF-α production inhibition grade (IC50). In a few lines: (§2)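 U937 cells were PMA-differentiated into macrophages and treated with compound before inflammatory stimulus. TNF-α secretion was induced with Pam2CSK4 and IL-1β secretion with BzATP. IC50 (μM) values are graded A-D, with separate cut-offs per cytokine.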

Experiment [3] shares this test system. Put plainly: BzATP-induced IL-1β secretion inhibition in PMA-differentiated U937 cells. The settings on record: U-937, U937 cells differentiated with PMA, read-out: IL-1β production inhibition grade (IC50). In a few lines:
as §2

Experiment [4] concerns J774A.1 (Mouse BALB/c monocyte macrophage cell line) cells. The experiment can be described thus: LPS-induced TNF-α secretion inhibition in J774A.1 cells. The settings on record: J774.A1, 1 μM compound, graded compared to taurodeoxycholic acid (positive control), read-out: TNF-α production inhibition grade. In a few lines:
as §1

For orientation: inhibition means the relative decrease from the control value, in per cent. One may read the IC50 as the point on the concentration scale where inhibition reaches its midpoint. As to `C[C@H](CCC(=O)N1CCC[C@H](S(=O)(=O)O)C1)[C@H]1CC[C@H]2[C@@H]3CC[C@@H]4C[C@H](O)CC[C@]4(C)[C@H]3C[C@H](O)[C@]12C` [NC10026], the figures for the inhibition at 1 µM in experiment [1] and in experiment [4] were above 100% and below 20%, respectively. The IC50 in experiment [2] is 1000 to 2000 nM; in experiment [3] it was below 50 nM.

Turning to `C[C@H](CCC(=O)Nc1ccc(S(=O)(=O)O)cc1)[C@H]1CC[C@H]2[C@@H]3CC[C@@H]4C[C@H](O)CC[C@]4(C)[C@H]3C[C@H](O)[C@]12C` [NC10003], the inhibition at 1 µM in experiment [1] and in experiment [4] was above 100% in each case. For the same compound, the results for the IC50 in experiment [2] and in experiment [3] were below 500 nM and below 50 nM, respectively.

In the case of `CC[C@H]1[C@@H](O)[C@@H]2[C@H](CC[C@]3(C)[C@@H]([C@H](C)CCC(=O)NC[C@@H](C)S(=O)(=O)O)CC[C@@H]23)[C@@]2(C)CC[C@@H](O)C[C@@H]12` [NC40023], the inhibition at 1 µM in experiment [1] and in experiment [4] was below 20% throughout. The results for the IC50 in experiment [2] and in experiment [3] were 500 to 1000 nM and at least 200 nM, respectively.

Turning to `C[C@H](CCC(=O)N[C@H](CS(=O)(=O)O)c1ccccc1)[C@H]1CC[C@H]2[C@@H]3CC[C@@H]4C[C@H](O)CC[C@]4(C)[C@H]3CC[C@]12C` [NC10074], the inhibition at 1 µM was above 100% in experiment [1] and below 20% in experiment [4]. The IC50 in experiment [2] is below 500 nM; in experiment [3], 50 to 100 nM.

Consider `CC[C@H]1[C@@H](O)[C@@H]2[C@H](C[C@H](O)[C@]3(C)[C@@H]([C@H](C)CCC(=O)N[C@H](C)CS(=O)(=O)O)CC[C@@H]23)[C@@]2(C)CC[C@@H](O)C[C@@H]12` [NC50029], for which the results for the inhibition at 1 µM in experiment [1] and in experiment [4] were 50 to 100% and below 20%, respectively. Moreover, the figures for the IC50 in experiment [2] and in experiment [3] were 500 to 1000 nM and at least 200 nM, respectively.

In the case of `C[C@H](CCC(=O)N1CCC[C@H](S(=O)(=O)O)C1)[C@H]1CC[C@H]2[C@@H]3CC[C@@H]4CC(=O)CC[C@]4(C)[C@H]3CC[C@]12C` [NC30009], the figures for the inhibition at 1 µM in experiment [1] and in experiment [4] were 20 to 50% and 50 to 100%, respectively. Also, the IC50 was 500 to 1000 nM in experiment [2] and at least 200 nM in experiment [3].

For the compound `C[C@H](CCC(=O)N1CCC[C@@H](S(=O)(=O)O)C1)[C@H]1CC[C@H]2[C@@H]3CC[C@@H]4C[C@H](O)CC[C@]4(C)[C@H]3C[C@H](O)[C@]12C` [NC10027], the inhibition at 1 µM in experiment [1] is above 100%; in experiment [4], below 20%. Moreover, the IC50 in experiment [2] was 500 to 1000 nM; in experiment [3], below 50 nM.

For the compound `C[C@H](CS(=O)(=O)O)NC(=O)CC[C@@H](C)[C@H]1CC[C@H]2[C@@H]3CC[C@@H]4CC(=O)CC[C@]4(C)[C@H]3CC[C@]12C` [NC30029], the inhibition at 1 µM in experiment [1] was 20 to 50%; in experiment [4] it was below 20%. In addition, the IC50 in experiment [2] is 500 to 1000 nM; in experiment [3], at least 200 nM.

As for `CC(C)[C@H](CS(=O)(=O)O)NC(=O)CC[C@@H](C)[C@H]1CC[C@H]2[C@@H]3CC[C@@H]4C[C@H](O)CC[C@]4(C)[C@H]3CC[C@]12C` [NC10068], the inhibition at 1 µM in experiment [1] was above 100%; in experiment [4] it was below 20%. The IC50 in experiment [2] is below 500 nM; in experiment [3], below 50 nM.

As for `CC[C@H]1[C@@H](O)[C@@H]2[C@H](C[C@H](O)[C@]3(C)[C@@H]([C@H](C)CCC(=O)N(C)CCS(=O)(=O)O)CC[C@@H]23)[C@@]2(C)CC[C@@H](O)C[C@@H]12` [NC50004], the inhibition at 1 µM in experiment [1] and in experiment [4] was below 20% each time. The figures for the IC50 in experiment [2] and in experiment [3] were at least 2000 nM and 100 to 200 nM, respectively.

Consider `CC(C)N(CCS(=O)(=O)O)C(=O)CC[C@@H](C)[C@H]1CC[C@H]2[C@@H]3CC[C@@H]4C[C@H](O)CC[C@]4(C)[C@H]3CC[C@]12C` [NC10058], for which the inhibition at 1 µM was above 100% in experiment [1] and below 20% in experiment [4]. Further, the IC50 in experiment [2] is at least 2000 nM; in experiment [3] it was below 50 nM.

As to `C[C@H](CCC(=O)N1CC[C@@H](S(=O)(=O)O)C1)[C@H]1CC[C@H]2[C@@H]3CC[C@@H]4C[C@H](O)CC[C@]4(C)[C@H]3CC[C@]12C` [NC10090], the inhibition at 1 µM in experiment [1] and in experiment [4] was below 20% throughout. Further, the figures for the 50% inhibitory concentration (IC50) in experiment [2] and in experiment [3] were 500 to 1000 nM and at least 200 nM, respectively.

As for `CC[C@H]1[C@@H](O)[C@@H]2[C@H](C[C@H](O)[C@]3(C)[C@@H]([C@H](C)CCC(=O)N[C@H](CS(=O)(=O)O)c4ccccc4)CC[C@@H]23)[C@@]2(C)CC[C@@H](O)C[C@@H]12` [NC50018], the inhibition at 1 µM in experiment [1] is 50 to 100%; in experiment [4], below 20%. Besides, the IC50 in experiment [2] was at least 2000 nM; in experiment [3], 50 to 100 nM.

In the case of `CC[C@H]1[C@@H](O)[C@@H]2[C@H](CC[C@]3(C)[C@@H]([C@H](C)CCC(=O)N[C@H](Cc4ccccc4)CS(=O)(=O)O)CC[C@@H]23)[C@@]2(C)CC[C@@H](O)C[C@@H]12` [NC40015], the inhibition at 1 µM in experiment [1] is above 100%; in experiment [4], below 20%. For the same compound, the 50% inhibitory concentration (IC50) lay within 500 to 1000 nM in experiment [2] and 50 to 100 nM in experiment [3].

For `C[C@H](CCC(=O)NC[C@H](C)S(=O)(=O)O)[C@H]1CC[C@H]2[C@@H]3CC[C@@H]4CC(=O)CC[C@]4(C)[C@H]3CC[C@]12C` [NC30022], the inhibition at 1 µM in experiment [1] and in experiment [4] was 20 to 50% in each case. The figures for the IC50 in experiment [2] and in experiment [3] were at least 2000 nM and at least 200 nM, respectively.

With `CC[C@H]1[C@@H](O)[C@@H]2[C@H](CC[C@]3(C)[C@@H]([C@H](C)CCC(=O)N4CC[C@H](S(=O)(=O)O)C4)CC[C@@H]23)[C@@]2(C)CC[C@@H](O)C[C@@H]12` [NC40033], the inhibition at 1 µM in experiment [1] and in experiment [4] was above 100% each time. Further, the figures for the IC50 in experiment [2] and in experiment [3] were below 500 nM and below 50 nM, respectively.

Consider `C[C@H](CCC(=O)N[C@@H](Cc1ccccc1)CS(=O)(=O)O)[C@H]1CC[C@H]2[C@@H]3[C@H](O)C[C@@H]4C[C@H](O)CC[C@]4(C)[C@H]3C[C@H](O)[C@]12C` [NC20014], for which the inhibition at 1 µM in experiment [1] was above 100%; in experiment [4], below 20%. Further, the figures for the IC50 in experiment [2] and in experiment [3] were 500 to 1000 nM and below 50 nM, respectively.

Take `C[C@H](CCC(=O)N1CCC[C@@H](S(=O)(=O)O)C1)[C@H]1CC[C@H]2[C@@H]3CC[C@@H]4CC(=O)CC[C@]4(C)[C@H]3CC[C@]12C` [NC30010]: the inhibition at 1 µM in experiment [1] is 50 to 100%; in experiment [4] it was above 100%. The concentration for half-maximal inhibition (IC50) in experiment [2] is 500 to 1000 nM; in experiment [3], below 50 nM.

Turning to `C[C@H](CCC(=O)N(CCS(=O)(=O)O)Cc1ccccc1)[C@H]1CC[C@H]2[C@@H]3CC[C@@H]4C[C@H](O)CC[C@]4(C)[C@H]3CC[C@]12C` [NC10056], the inhibition at 1 µM in experiment [1] is 50 to 100%; in experiment [4] it was 20 to 50%. In addition, the IC50 in experiment [2] is at least 2000 nM; in experiment [3], 50 to 100 nM.

As for `CC(C)[C@H](CS(=O)(=O)O)NC(=O)CC[C@@H](C)[C@H]1CC[C@H]2[C@@H]3CC[C@@H]4CC(=O)CC[C@]4(C)[C@H]3CC[C@]12C` [NC30017], the inhibition at 1 µM in experiment [1] and in experiment [4] was below 20% each time. Further, the results for the IC50 in experiment [2] and in experiment [3] were at least 2000 nM and at least 200 nM, respectively.

Turning to `C[C@H](CCC(=O)NC[C@H](C)S(=O)(=O)O)[C@H]1CC[C@H]2[C@@H]3CC[C@@H]4C[C@H](O)CC[C@]4(C)[C@H]3CC[C@]12C` [NC10078], the inhibition at 1 µM in experiment [1] is above 100%; in experiment [4], below 20%. In addition, the results for the IC50 in experiment [2] and in experiment [3] were below 500 nM and below 50 nM, respectively.

As for `C[C@H](CCC(=O)NCCCS(=O)(=O)O)[C@H]1CC[C@H]2[C@@H]3CC[C@@H]4C[C@H](O)CC[C@]4(C)[C@H]3C[C@H](O)[C@]12C` [NC10002], the inhibition at 1 µM in experiment [1] and in experiment [4] was above 100% in each case. Besides, the IC50 in experiment [2] is below 500 nM; in experiment [3], below 50 nM.

For `CC[C@H]1[C@@H](O)[C@@H]2[C@H](C[C@H](O)[C@]3(C)[C@@H]([C@H](C)CCC(=O)N[C@H](CS(=O)(=O)O)C(C)C)CC[C@@H]23)[C@@]2(C)CC[C@@H](O)C[C@@H]12` [NC50016], the inhibition at 1 µM in experiment [1] was above 100%; in experiment [4], below 20%. The IC50 in experiment [2] lay in the range of 500 to 1000 nM; in experiment [3] it was 50 to 100 nM.

For `C[C@H](CCC(=O)N1CCC[C@@H]1CS(=O)(=O)O)[C@H]1CC[C@H]2[C@@H]3CC[C@@H]4CC(=O)CC[C@]4(C)[C@H]3CC[C@]12C` [NC30020], the inhibition at 1 µM in experiment [1] is 20 to 50%; in experiment [4], below 20%. Further, the IC50 in experiment [2] is at least 2000 nM; in experiment [3] it was at least 200 nM.

`C[C@H](CCC(=O)N1CCC[C@H](S(=O)(=O)O)C1)[C@H]1CC[C@H]2[C@@H]3[C@H](O)C[C@@H]4C[C@H](O)CC[C@]4(C)[C@H]3C[C@H](O)[C@]12C` [NC20009]: the inhibition at 1 µM in experiment [1] and in experiment [4] was below 20% each time. The IC50 was at least 2000 nM in experiment [2] and below 50 nM in experiment [3].
